Results reported in US10125356B2, “Enzymatic methods and enzymes” (Givaudan SA, priority 2007, dated 2018).

How the values were obtained:
[1] = tested on: Ax20 peptidase (SEQ ID NO: 2); assay: Release of 3-sulfanyl-3-methyl-hexanol from cys-gly-conjugate by clear lysate of recombinant E. coli expressing Ax20 peptidase, monobromobimane fluorescence test; format: biochemical, Corynebacterium sp. Ax20; conditions: conjugate 1 mM
Experimental: (§1) Samples of each fraction were incubated both with the β-lyase and with the cys-gly-conjugate at the same time, and the release of 3-sulfanyl-3-methyl-hexanol was determined by a fluorescence test specific for free SH groups: To this end the enzyme reaction was stopped by adding 0.5 volumes of NaCO3-buffer (0.1 M, pH 8.8) containing 0.5 mM monobromobimane, thus derivatising the free thiol-group. Fluorescence was then measured on a Flex-station (Molecular devices, Sunnyvale, Calif., USA) with an excitation wavelength of 385 nm and an emission wavelength of 480 nm.
(§2) 50 ml of recombinant E. coli culture formed as described in example 3 and 4 was harvested, resuspended in a final volume of 3 ml of phosphate buffer and then disrupted with ultrasonication. The soluble extract was cleared by centrifugation. Different dilutions of the resulting extract were incubated with the cys-gly-conjugate (1 mM) and in presence as well as in absence of an excess of the β-lyase. As a negative control, clear cell lysate from E. coli transformed with an empty vector, and cell lysates with the cys-gly-conjugate but no β-lyase were used.

[2] = tested on: K411 peptidase (SEQ ID NO: 4); assay: Release of 3-sulfanyl-3-methyl-hexanol from cys-gly-conjugate by clear lysate of recombinant E. coli expressing K411 peptidase, monobromobimane fluorescence test; format: biochemical, Corynebacterium jeikeium K411; conditions: conjugate 1 mM
Experimental: as §1, §2

Ax20 peptidase = assay: Substrate specificity of recombinant Ax20 peptidase, cleavage by thin layer chromatography; format: biochemical, Corynebacterium sp. Ax20; conditions: 1 mM solution, 0.1 or 1 μg/ml peptidase, incubation 1 h
Experimental: The recombinant Ax20 peptidase formed as described in example 3 (affinity column purified tagged enzyme) was incubated with different compounds, in particular potential candidate dipeptide substrates, to characterize the substrate specificity and to identify substrates useful for screening assays (for example to screen for modulators including inhibitors).
The table below lists the tested compounds (mostly dipeptides indicated by their short names, e.g. ala-gly for an alanine-glycine dipeptide) and indicates whether they are cleaved by the peptidase. Z indicates a benzyloxy-carbonyl protecting group at the N-terminus of the peptide.
Cleavage was determined by thin layer chromatography.
Amounts are qualitative with (+++) indicating >80% cleavage of a 1 mM solution by 0.1 μg/ml peptidase during an incubation for 1 h; (++) indicates complete cleavage of a 1 mM solution by 1 μg/ml peptidase during an incubation for 1 h and (+) indicates partial cleavage (20-80%) of a 1 mM solution by 1 μg/ml peptidase during an incubation for 1 h and (−) indicating the absence of any cleavage.

β-lyase = molecular target: T1, β-lyase (Corynebacterium striatum, UniProt Q64HC5); assay: Cleavage of conjugates by β-lyase, release of 3-sulfanyl-3-methyl-hexanol by gas chromatography; format: biochemical, Corynebacterium sp. Ax20; conditions: conjugate 1 mM incubated with β-lyase
T1 construct: made in house
Experimental: The test compounds (Cys-conjugate (1 mM) or Cys-Gly-conjugate (1 mM)) were incubated with β-lyase.
(§3) Cleavage was measured by gas chromatography to determine the release of 3-sulfanyl-3-methyl-hexanol in mM.

C. sp. Ax 20 extract = assay: Cleavage of conjugates by Corynebacterium sp. Ax20 cellular extract, release of 3-sulfanyl-3-methyl-hexanol by gas chromatography; format: biochemical; conditions: conjugate 1 mM incubated with C. sp. Ax 20 extract for 24 h
Experimental: The test compounds (cys-conjugate (1 mM) or cys-gly-conjugate (1 mM)) were incubated also with the wild-type strain Corynebacterium sp. Ax20 extract naturally containing the peptidase of SEQ ID NO:2. Corynebacterium sp. Ax20 cellular extract was prepared as described in example 1. The resulting extract was diluted to the same volume as the original culture has had when adjusted to an optical density of OD 4. The substrate was incubated with the extract for 24 h.
as §3

T1 sequence (Q64HC5 whole entry): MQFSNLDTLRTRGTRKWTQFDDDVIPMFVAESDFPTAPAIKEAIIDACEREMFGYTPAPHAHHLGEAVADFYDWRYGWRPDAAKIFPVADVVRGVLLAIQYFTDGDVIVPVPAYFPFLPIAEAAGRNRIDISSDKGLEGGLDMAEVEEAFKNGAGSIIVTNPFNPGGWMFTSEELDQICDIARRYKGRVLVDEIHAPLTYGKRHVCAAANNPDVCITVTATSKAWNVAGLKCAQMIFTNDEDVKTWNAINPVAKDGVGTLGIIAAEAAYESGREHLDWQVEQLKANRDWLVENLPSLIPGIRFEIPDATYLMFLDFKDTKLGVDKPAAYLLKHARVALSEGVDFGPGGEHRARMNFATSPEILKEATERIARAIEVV

## CCCC(C)(CCO)SC[C@H](N)C(=O)NCC(=O)O (stereo in doubt) [Cys-gly-conjugate, (1-(2-hydroxyethyl)-1-methylbutyl)-L-cysteinyl-glycine]
[1]; Ax20 peptidase + β-lyase, clear cell lysate diluted 10 fold
  release of 3-sulfanyl-3-methyl-hexanol from the Cys-Gly-conjugate: 1.00 mM
[1]; Ax20 peptidase + β-lyase, clear cell lysate diluted 100 fold
  release of 3-sulfanyl-3-methyl-hexanol from the Cys-Gly-conjugate: 0.92 mM
[1]; Ax20 peptidase + β-lyase, clear cell lysate diluted 1000 fold
  release of 3-sulfanyl-3-methyl-hexanol from the Cys-Gly-conjugate: 0.46 mM
[1]; Ax20 peptidase w/o β-lyase, clear cell lysate diluted 10 fold
  release of 3-sulfanyl-3-methyl-hexanol from the Cys-Gly-conjugate: 0.10 mM
[1]; Ax20 peptidase w/o β-lyase, clear cell lysate diluted 100 fold
  release of 3-sulfanyl-3-methyl-hexanol from the Cys-Gly-conjugate: <0.01 mM
[1]; Ax20 peptidase w/o β-lyase, clear cell lysate diluted 1000 fold
  release of 3-sulfanyl-3-methyl-hexanol from the Cys-Gly-conjugate: <0.01 mM
[1]; Ax20 peptidase with histidine tag + β-lyase, clear cell lysate diluted 10 fold
  release of 3-sulfanyl-3-methyl-hexanol from the Cys-Gly-conjugate: 0.94 mM
[1]; Ax20 peptidase with histidine tag + β-lyase, clear cell lysate diluted 100 fold
  release of 3-sulfanyl-3-methyl-hexanol from the Cys-Gly-conjugate: 0.88 mM
[1]; Ax20 peptidase with histidine tag + β-lyase, clear cell lysate diluted 1000 fold
  release of 3-sulfanyl-3-methyl-hexanol from the Cys-Gly-conjugate: 0.36 mM
[2]; K411 peptidase + β-lyase, clear cell lysate diluted 10 fold
  release of 3-sulfanyl-3-methyl-hexanol from the Cys-Gly-conjugate: 0.55 mM
[2]; K411 peptidase + β-lyase, clear cell lysate diluted 100 fold
  release of 3-sulfanyl-3-methyl-hexanol from the Cys-Gly-conjugate: 0.19 mM
[2]; K411 peptidase + β-lyase, clear cell lysate diluted 1000 fold
  release of 3-sulfanyl-3-methyl-hexanol from the Cys-Gly-conjugate: 0.03 mM
[2]; K411 peptidase w/o β-lyase, clear cell lysate diluted 10 fold
  release of 3-sulfanyl-3-methyl-hexanol from the Cys-Gly-conjugate: 0.10 mM
[2]; K411 peptidase w/o β-lyase, clear cell lysate diluted 100 fold
  release of 3-sulfanyl-3-methyl-hexanol from the Cys-Gly-conjugate: <0.01 mM
[2]; K411 peptidase w/o β-lyase, clear cell lysate diluted 1000 fold
  release of 3-sulfanyl-3-methyl-hexanol from the Cys-Gly-conjugate: <0.01 mM
Ax20 peptidase
  Cleavage: +++ ((+++) indicating >80% cleavage of a 1 mM solution by 0.1 μg/ml peptidase during an incubation for 1 h)
β-lyase
  release of 3-sulfanyl-3-methyl-hexanol from the conjugate: <0.03 mM
C. sp. Ax 20 extract
  release of 3-sulfanyl-3-methyl-hexanol from the conjugate: 0.21 mM
